Laboratory results: PubChem BioAssay (NCI)
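Briefly, cells in 96-well plates were exposed to five compound concentrations for 48 h, and endpoints were estimated by linear interpolation. GI50 is the concentration that inhibits growth by half. TGI marks complete inhibition of growth.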

Tests used:
Test in all cases: NCI-60 cell line screen, 48 h; in the data active = GI50 below about 0.43 µM; inactive = the rest
[1] = tested on: 786-0 renal
[2] = tested on: A498 renal
[3] = tested on: A549 NSCLC
[4] = tested on: ACHN renal
[5] = tested on: BT-549 breast
[6] = tested on: CAKI-1 renal
[7] = tested on: CCRF-CEM leukemia
[8] = tested on: COLO 205 colon
[9] = tested on: DU-145 prostate
[10] = tested on: EKVX NSCLC
[11] = tested on: HCC-2998 colon
[12] = tested on: HCT-116 colon
[13] = tested on: HCT-15 colon
[14] = tested on: HL-60(TB) leukemia
[15] = tested on: HOP-62 NSCLC
[16] = tested on: HOP-92 NSCLC
[17] = tested on: HS 578T breast
[18] = tested on: HT29 colon
[19] = tested on: IGROV1 ovarian
[20] = tested on: K-562 leukemia
[21] = tested on: KM12 colon
[22] = tested on: LOX IMVI melanoma
[23] = tested on: M14 melanoma
[24] = tested on: MALME-3M melanoma
[25] = tested on: MCF7 breast
[26] = tested on: MDA-MB-231 breast
[27] = tested on: MDA-MB-435
[28] = tested on: MDA-MB-468 breast
[29] = tested on: MOLT-4 leukemia
[30] = tested on: NCI-H226 lung
[31] = tested on: NCI-H23 lung
[32] = tested on: NCI-H460 lung
[33] = tested on: NCI-H522 lung
[34] = tested on: NCI/ADR-RES ovarian
[35] = tested on: OVCAR-3 ovarian
[36] = tested on: OVCAR-4 ovarian
[37] = tested on: OVCAR-5 ovarian
[38] = tested on: OVCAR-8 ovarian
[39] = tested on: PC-3 prostate
[40] = tested on: RPMI-8226 leukemia
[41] = tested on: RXF 393 renal
[42] = tested on: SF-268 CNS
[43] = tested on: SF-295 CNS
[44] = tested on: SF-539 CNS
[45] = tested on: SK-MEL-2 melanoma
[46] = tested on: SK-MEL-28 melanoma
[47] = tested on: SK-MEL-5 melanoma
[48] = tested on: SK-OV-3 ovarian
[49] = tested on: SN12C renal
[50] = tested on: SNB-19 CNS
[51] = tested on: SNB-75 CNS
[52] = tested on: SW-620 colon
[53] = tested on: T-47D breast
[54] = tested on: TK-10 renal
[55] = tested on: U251 CNS
[56] = tested on: UACC-257 melanoma
[57] = tested on: UACC-62 melanoma
[58] = tested on: UO-31 renal

CN(C)CCOc1ccc(C(=O)C2[C@H](c3ccc(Cl)cc3)[C@@H](c3ccccc3)NC23C(=O)Nc2ccccc23)cc1 (stereo partly specified)
7.55 µM: TGI [35]
5.62 µM: TGI [46]
6.32 µM: TGI [25]
5.69 µM: TGI [23]
5.76 µM: TGI [11]
6.17 µM: TGI [32]
5.99 µM: TGI [27] | TGI [47]
5.02 µM: TGI [22]
12 µM: TGI [41]
8.62 µM: TGI [29]
> 18.5 µM: TGI [2] | TGI [3] | TGI [5] | TGI [6] | TGI [9] | TGI [15] | TGI [17] | TGI [19] | TGI [30] | TGI [33] | TGI [34] | TGI [36] | TGI [37] | TGI [42] | TGI [48] | TGI [49] | TGI [50] | TGI [51] | TGI [53] | TGI [54] | TGI [58]
6.93 µM: TGI [8]
7.11 µM: TGI [45]
9.94 µM: TGI [31]
13.2 µM: TGI [7]
5.48 µM: TGI [24]
7.13 µM: TGI [18]
7.3 µM: TGI [21]
6.21 µM: TGI [10]
7.54 µM: TGI [56]
6.52 µM: TGI [43]
12.7 µM: TGI [16]
6.07 µM: TGI [55]
inactive: GI50 [1] 3.14 µM | GI50 [2] > 18.5 µM | GI50 [3] 5.95 µM | GI50 [4] 4.33 µM | GI50 [5] > 18.5 µM | GI50 [6] 4.5 µM | GI50 [7] 3.98 µM | GI50 [8] 3.58 µM | GI50 [9] 5.78 µM | GI50 [10] 3.03 µM | GI50 [11] 3.07 µM | GI50 [12] 2.96 µM | GI50 [13] 3.68 µM | GI50 [14] 4.11 µM | GI50 [15] 6.6 µM | GI50 [16] 3.03 µM | GI50 [17] 3.88 µM | GI50 [18] 3.32 µM | GI50 [19] 10.4 µM | GI50 [20] 3.86 µM | GI50 [21] 3.56 µM | GI50 [22] 2.62 µM | GI50 [23] 2.89 µM | GI50 [24] 2.92 µM | GI50 [25] 3.18 µM | GI50 [26] 3.55 µM | GI50 [27] 3.04 µM | GI50 [28] 2.91 µM | GI50 [29] 3.3 µM | GI50 [30] 7.97 µM | GI50 [31] 3.95 µM | GI50 [32] 3.29 µM | GI50 [33] 7.52 µM | GI50 [34] 5.9 µM | GI50 [35] 3.41 µM | GI50 [36] 8.79 µM | GI50 [37] 4.41 µM | GI50 [38] 4.56 µM | GI50 [39] 3.77 µM | GI50 [40] 3.95 µM | GI50 [41] 2.88 µM | GI50 [42] 9.62 µM | GI50 [43] 3.22 µM | GI50 [44] 3.14 µM | GI50 [45] 3.6 µM | GI50 [46] 3.05 µM | GI50 [47] 3.11 µM | GI50 [48] > 18.5 µM | GI50 [49] 10.6 µM | GI50 [50] 8.07 µM | GI50 [51] 4.58 µM | GI50 [52] 3.13 µM | GI50 [53] 9.41 µM | GI50 [54] > 18.5 µM | GI50 [55] 3.13 µM | GI50 [56] 3.38 µM | GI50 [57] 2.88 µM | GI50 [58] 6.9 µM
11.2 µM: TGI [14] | TGI [39]
6.05 µM: TGI [52]
11.7 µM: TGI [4] | TGI [20]
10.2 µM: TGI [26]
5.74 µM: TGI [28]
11 µM: TGI [38]
6.01 µM: TGI [44]
5.51 µM: TGI [12]
5.83 µM: TGI [1]
5.59 µM: TGI [57]
8.25 µM: TGI [13]
11.3 µM: TGI [40]
